Results on one substance are retold here after patent publication EP1459757A1, “Immunomodulating polymers” (THE BRIGHAM AND WOMEN'S HOSPITAL, INC., priority 1999, dated 2004).

Assay [1] deals with human T cells. Description: T cell proliferation assay (3H-thymidine uptake). In kind it is cell-based. The following applies: 20 µg/ml; 6 days post-incubation (Figure 6). The procedure:
T cell proliferation assays were performed on cells obtained from human leukopacs (discarded white cells from anonymous platelet donors). Mononuclear cells were separated by ficoll-hypaque sedimentation to eliminate red cells and polymorphonuclear leukocytes. The mononuclear layer, which consisted of T cells, B cells, and mononuclear cells, was depleted of B cells and monocytes by passage over nylon wool column. A portion of these cells was saved prior to placement on nylon wool and were used as autologous feeder cells following irradiation with 6.4 kRads with a cesium source for 4.8 min. Nylon passed cells, which were greater than 98% CD3 positive (as determined by FACS analysis) were used as responder cells or further depleted with antibodies to CD4 (OKT4) or CD8 (OKT8) followed by negative selection with magnetic beads. Finberg, RW et al. J Immunol 149:2055 (1992); Haregewoin, A et al. Nature 340:309 (1989). […] Cells were washed extensively, harvested, and the amount of radioactive uptake counted by liquid scintillation. […] Data were expressed as the average of triplicate wells ± the standard error of cpm represented. […]
Following the T cell proliferation assay of Example 2, K-D peptides (20 µg/ml) of varying size were assessed for their ability to stimulate T cell activation 6 days post-incubation. […]

In assay [2] the test system is B. fragilis NCTC 9343. Description: Rat model of intraabdominal sepsis, abscess formation after B. fragilis challenge. In kind it is in vivo.
Description: The rat model of intraabdominal sepsis used in this study has been described previously. […] Briefly, male Wistar or Lewis rats (Charles River Laboratories, Wilmington, MA) weighing between 180 and 200 g were housed separately and received chow (Ralston Purina, St. Louis, MO) and water ad libitum. Animals were anesthetized with a single intraperitoneal injection of 0.15 ml of Nembutal (50 mg/ml; Abbott Laboratories, North Chicago, IL), and their abdomens were shaved and swabbed with a tincture of iodine. An anterior midline incision (0.5-1.0 cm) was made through the abdominal wall and peritoneum, and a gelatin capsule containing 0.5 ml of inoculum was inserted into the pelvis. The inoculum contained either B. fragilis NCTC 9343 (10^8 cfu/animal), S. aureus PS 80 (10^7 cfu/animal), or purified test polysaccharide, mixed 1:1 with an adjuvant solution containing sterile rat cecal contents and 10% barium sulfate (w/v) as previously described. […] The incisions were closed with interrupted 3.0 silk sutures, and the animals were returned to the cages.
Six days later animals were necropsied in a blinded fashion and examined for the formation of one or more intraabdominal abscesses by an observer blinded to the experimental groups.
This example addresses whether zwitterionic (K-D)n peptides could protect animals against abscess formation in vivo, using the abdominal sepsis model in Example 1.
The effect of the peptide repeating unit size on protection was examined. Animals were treated according to the regimen described above with a 50 µg/dose of each repeating unit size (Table 2).
The mark [3] stands for this setting: Table 1 Experiment A, 50 µg subcutaneous at -24, 0, +24 h, B. fragilis 1 x 10^8 cfu/rat, six days later.

Regarding poly-L-lysine, the “T cell activation by K-D peptides of varying size” value in assay [1] is reported as “did not stimulate T cell proliferation”. In addition, in assay [2] (50 µg/dose subcutaneous, B. fragilis challenge), the “protection against abscess formation compared with saline-treated animals” value is “did not protect against abscess formation”. For the same substance, in assay [2] (setting [3]), the “Abscess formation (%)” value amounted to 80% and the “No. animals with abscess/total” value was 8/10.
